This note sets out measurements from PubChem BioAssay AID1933 (Broad Institute, 2009).

Structures are written as SMILES. Records with an inconclusive call do not appear. The source made the active and inactive calls. No rule for the calls is given here. Where only a bound is given, the exact number is not on record here.

The assay deals with BJ-TERT fibroblast viability, ATP luminescence. The experiment in a line: BJ-TERT fibroblast viability loss – cell-based, RAS-independent, luminescence, dose response (AID 1933).

For the molecule `COc1cc2c(c(OC)c1OC)-c1ccc(O)c(=O)cc1C(NC(C)=O)CC2` (configuration not stated), the EC50 is under 0.12 µM.
The value for `CCSc1nc2ccccc2n1C(=O)/C=C/c1ccc(OC)c(OC)c1` was > 15 µM (inactive).

In general, EC50 refers to the concentration at which the effect is half-maximal.
